From patent US20230167058A1, “GPX4 COMPOUNDS AND COMPOSITIONS AND METHODS OF TREATMENT USING SAME” (THE TRUSTEES OF COLUMBIA UNIVERSITY IN THE CITY OF NEW YORK, priority 2020, published 2023)
“Also recorded” adds a separate entry of the source.

Legend:
GPX4^U46C = target: T1, GPX4^U46C (Homo sapiens, UniProt P36969, U73C); assay: Thermal shift assay (screen of LOC library); format: binding
T1 construct: His6 (N, cleaved yes); made in house; host or cells: E. coli BL21-Gold (DE3), M9 minimal medium with 15NH4Cl
T1 sequence (P36969 33-197 U73C): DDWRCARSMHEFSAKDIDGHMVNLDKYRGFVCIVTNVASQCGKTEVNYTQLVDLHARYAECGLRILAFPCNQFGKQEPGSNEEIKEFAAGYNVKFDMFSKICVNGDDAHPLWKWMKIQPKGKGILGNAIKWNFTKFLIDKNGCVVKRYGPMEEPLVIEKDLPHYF
Experimental: To fully utilize the versatility shown by the […] site to accommodate structurally diverse compounds, we applied thermal shift assay to screen 9,719 compounds in the Lead-Optimized-Compound (LOC) library for in vitro binders of GPX4^U46C, which would shift the melting temperature of GPX4^U46C (|ΔTm|>2° C., FIG. 12D) (Kaplan et al. 2015).
Since the binding of small molecules may alter the thermostability of protein, we applied thermal shift assay to screen the LOC library, which determined binding of ligand from the change of the unfolding transition temperature (ΔTm) obtained in the presence of ligands relative to that obtained in the absence of ligands (Kaplan et al. 2015; Lo et al. 2004). For higher throughput purpose, we adapted the assay on 384-well PCR plate. With the assistance of Biomek Automated Liquid Handler (Beckman), 2 μl 10 mM stock solution (in 100% DMSO) of the each compound was transferred from 384-well library plates to 38 μl FPLC buffer (100 mM Tris pH 8.0, 300 mM NaCl, 3 mM TCEP) and mixed in each well of a 384-well mother plate. The compound solution was then dispensed, 12 μl per well, into three 384-well PCR plates. GPX4^U46C protein and Sypro orange were manually added to the plate, with the final concentrations of 5 μM and 5×, respectively, to make a volume of 20 μl per well right before thermal shift analysis of the specific plate. The thermal shift assay was performed on the ViiA 7 Real-Time PCR system (Thermo Fisher) with the thermal protocol: 25° for 15 s, Increase temp to 99° at a rate of 0.05°/sec, 99° for 15 sec. The fluorescence was recorded and analyzed by Protein Thermal Shift™ software. The mean |ΔTm| value for the biological triplicates were calculated and used for hit identification.

GPX4 = target: T2, GPX4 (Homo sapiens, UniProt P36969); assay: GPX4-specific enzymatic activity assay (LC-MS substrate/product, NADPH-coupled); format: biochemical
T2 sequence (P36969 1-170 isoform P36969-2): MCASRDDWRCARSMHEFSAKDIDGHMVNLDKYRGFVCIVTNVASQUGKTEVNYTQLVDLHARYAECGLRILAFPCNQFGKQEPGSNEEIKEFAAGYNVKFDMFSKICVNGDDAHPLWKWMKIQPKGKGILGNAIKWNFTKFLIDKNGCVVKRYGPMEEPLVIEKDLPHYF
From the text: These x-ray structures enabled further optimization of current inhibitors and the design of novel inhibitors targeting various binding sites on GPX4. Therefore, we applied a strategy of computer-facilitated design, based on MD simulation (Desmond) and Glide docking (Schrödinger Suite), and experimental high-throughput screening of a lead-optimized compound library of 10,000 compounds (FIGS. 6A-6E). All candidates were first evaluated by thermal denaturation assay and microscale thermophoresis (MST) to validate binding to GPX4 (Table 1). Surface plasmon resonance (SPR) and isothermal titration calorimetry (ITC) were then applied to precisely measure their binding kinetics and affinities, while ^1H-^15N heteronuclear single-quantum coherence (HSQC) NMR spectroscopy informed us of binding sites. We optimized two GPX4-specific activity assays to examine enzymatic inhibitory effects of hit compounds—LC-MS-based substrate/product monitoring and an NADPH-coupled assay. […] Some L880 analogues were also synthesized and tested (Table 2).

[1] = system: GPX4 protein level in HT-1080 cells; assay: Western blot GPX4 degradation study in HT-1080; format: cell-based, human; conditions: 1 μM RSL3, 1 μM ML162, 10 μM FIN56, 10 h, with 100 μM α-tocopherol
Outline: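 HT-1080 cells were co-treated 10 h with 100 μM α-tocopherol plus compound (RSL3 or ML162 at 1 μM; IKE or FIN56 at 10 μM) or vehicle. RIPA lysates were Western blotted for GPX4, with actin and GAPDH as loading references. Blots were quantified by infrared imaging.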

[2] = system: allCys(−) A66C GPX4 in G401 cells; assay: Western blot GPX4 degradation study in G401; format: cell-based; conditions: 2 or 4 μM RSL3, 10 h, 10 μM Fer-1
Experimental: For the GPX4 degradation study, G-401 cells were seeded at 800,000 per well in a 60-mm plate and allowed to adhere overnight. Cells were then treated with 10 μM Fer-1 and 0 (vehicle), 2 or 4 μM RSL3 for 10 h. Cells were harvested with trypsin (Invitrogen, 25200-114), pelleted, and lysed with RIPA buffer.
For the quantification of GPX4 protein level for cellular viability and GPX4-specific activity assay, each cell line subject to the cellular viability and GPX4-specific activity was tested by Western Blot in technical duplicates. In particular, cells were harvested with trypsin (Invitrogen, 25200-114), pelleted, and lysed by LCW lysis buffer (0.5% TritonX-100, 0.5% sodium deoxycholate salt, 150 mM NaCl, 20 mM Tris-HCl pH 7.5, 10 mM EDTA, 30 mM Na-pyrophosphate, and cOmplete protease inhibitor cocktail). While part of the cell lysates was blotted for protein quantification, the other part of lysates was used for the GPX4-specific activity assay. For both experiments, cell lysates were blotted and imaged as previously described (Yang et al. 2014). Antibodies used were GPX4 (Abcam, ab125066, 1:250 dilution) and actin (Cell Signaling, D18C11, 1:3,000 dilution). Results were quantified using a LI-COR Odyssey CLx IR scanner, ImageJ, and GraphPad Prism 9.

Aqueous solubility = format: physicochemical

Thermal shift (GPX4^U46C; Table 1)	|ΔTm| (GPX4^U46C; thermal shift screening top hit)	Compound	GPX4 enzymatic assay (GPX4)	degradation of endogenous GPX4 [1]	RSL3-induced degradation of allCys(−) A66C GPX4 [2]	solubility in aqueous solution (Aqueous solubility)
positive	3 °C	COc1cccc2[nH]c(C(=O)n3ccnc3)cc12 [LOC1886]	suppression of its enzymatic activity; also recorded: positive	–	–	–
–	–	COC(=O)c1ccc([C@@H]2c3[nH]c4ccccc4c3C[C@@H](C(=O)OC)N2C(=O)CCl)cc1 [RSL3, (1S, 3R)-RSL3]	–	significantly promoted degradation of GPX4	does-dependent degradation of allCys(−) A66C GPX4	low
